Reference: patent US6355799B1, “Substituted benzene compounds, process for their preparation, and herbicidal and defoliant compositions containing them” (ISK Americas Incorporated, priority 1997, dated 2002)

Assays:
Type in all cases: in vivo
[1] = test system: redroot pigweed (Amaranthus retroflexus, AMARE); test: Pre-emerge test, greenhouse herbicide activity screening
Procedure, shortened: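 Sandy loam pots; pre-emerge: sown 1 d pre-spray, surface-watered after, then bottom-watered. Post-emerge: sown 8–21 d before, 2–3 leaf stage, + 0.25% v/v NIS, bottom-watered. Acetone, 187 l/ha track spray, 15–1000 g ai/ha. 0–100 injury score, day 14.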

[2] = test system: upland rice (Oryza sp., var. Tebonnet, RICE); test: Pre-emerge test, crop safety
Procedure, shortened: (§1)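 Rating: 0–100 visual injury, 14 DAA. Application: acetone, 187 l/ha, 15–1000 g ai/ha, flat-fan track sprayer with nozzle 40–45 cm above soil or canopy. Post-emerge runs used 0.25% v/v surfactant on 2–3 leaf plants.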

[3] = test system: field corn (Zea mays L., var. Dekalb 535, CORN); test: Pre-emerge test, crop safety
Procedure, shortened: as §1

[4] = test system: large crabgrass (Digitaria sanguinalis, DIGSA); test: Pre-emerge test, greenhouse herbicide activity screening
Procedure, shortened: (§2)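 Compounds in acetone were track-sprayed at 15–1000 g ai/ha: pre-emergence onto soil sown the previous day, then top-watered to incorporate and later bottom-watered; post-emergence onto 2–3 leaf plants with 0.25% v/v surfactant, bottom-watered only. Ratings on a 0–100 phytotoxicity scale were taken at day 14.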

[5] = test system: green foxtail (Setaria viridis, SETVI); test: as above
Procedure, shortened: as §2

[6] = test system: lambsquarters (Chenopodium album, CHEAL); test: as above
Procedure, shortened: as §2

[7] = test system: ivyleaf morningglory (Ipomoea hederacea, IPOHE); test: as above
Procedure, shortened: as §2

[8] = test system: sicklepod (Cassia obtusifolia, CASOB); test: as above
Procedure, shortened: as §2

[9] = test system: velvetleaf (Abutilon theophrasti, ABUTH); test: as above
Procedure, shortened: as §2

[10] = test system: barnyardgrass (Echinochloa crus-galli, ECHCG); test: as above
Procedure, shortened: as §2

[11] = test system: johnsongrass (Sorghum halepense, SORHA); test: as above
Procedure, shortened: as §2

[12] = test system: upland rice (Oryza sp., var. Tebonnet, RICE); test: Post-emerge test, crop safety; conditions: post-emerge, 14 days after application, rating scale 0-100
Procedure, shortened: as §1

[13] = test system: field corn (Zea mays L., var. Dekalb 535, CORN); test: Post-emerge test, crop safety; conditions: post-emerge, 14 days after application, rating scale 0-100
Procedure, shortened: as §1

[14] = test system: large crabgrass (Digitaria sanguinalis, DIGSA); test: Post-emerge test, greenhouse herbicide activity screening; conditions: post-emerge, 14 days after application, rating scale 0-100
Procedure, shortened: (§3)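 Herbicidal damage is scored 0 (none) to 100 (complete plant death) two weeks after a simulated field spray. Rates span 15–1000 g ai/ha, delivered in acetone at 187 l/ha. For post-emergence treatments, plants have 2–3 leaves and the spray carries 0.25% v/v non-ionic surfactant.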

[15] = test system: green foxtail (Setaria viridis, SETVI); test: as above; conditions: post-emerge, 14 days after application, rating scale 0-100
Procedure, shortened: as §3

[16] = test system: lambsquarters (Chenopodium album, CHEAL); test: as above; conditions: post-emerge, 14 days after application, rating scale 0-100
Procedure, shortened: as §3

[17] = test system: ivyleaf morningglory (Ipomoea hederacea, IPOHE); test: as above; conditions: post-emerge, 14 days after application, rating scale 0-100
Procedure, shortened: as §3

[18] = test system: sicklepod (Cassia obtusifolia, CASOB); test: as above; conditions: post-emerge, 14 days after application, rating scale 0-100
Procedure, shortened: as §3

[19] = test system: velvetleaf (Abutilon theophrasti, ABUTH); test: as above; conditions: post-emerge, 14 days after application, rating scale 0-100
Procedure, shortened: as §3

[20] = test system: barnyardgrass (Echinochloa crus-galli, ECHCG); test: as above; conditions: post-emerge, 14 days after application, rating scale 0-100
Procedure, shortened: as §3

[21] = test system: redroot pigweed (Amaranthus retroflexus, AMARE); test: as above; conditions: post-emerge, 14 days after application
Procedure, shortened: as §3

[22] = test system: johnsongrass (Sorghum halepense, SORHA); test: as above; conditions: post-emerge, 14 days after application, rating scale 0-100
Procedure, shortened: as §3

[23] = pre-emerge, rate 63 g ai/ha, phytotoxicity rating 0-100 at 14 days after application
[24] = pre-emerge, rate 250 g ai/ha, phytotoxicity rating 0-100 at 14 days after application
[25] = crop damage, pre-emerge, rate 63 g ai/ha, phytotoxicity rating 0-100 at 14 days after application
[26] = crop damage, pre-emerge, rate 250 g ai/ha, phytotoxicity rating 0-100 at 14 days after application
[27] = 63 g ai/ha, rating scale 0-100 (0 no damage, 100 complete death)
[28] = 250 g ai/ha, rating scale 0-100
[29] = 63 g ai/ha, phytotoxicity rating 0-100, 14 days after application
[30] = 250 g ai/ha, phytotoxicity rating 0-100, 14 days after application
[31] = 63 g ai/ha, crop damage rating 0-100, 14 days after application
[32] = 250 g ai/ha, crop damage rating 0-100, 14 days after application

For `Cc1ccccc1COC(=O)Nc1c(C)c(Cl)cc(F)c1-n1c(=O)cc(C(F)(F)F)n(C)c1=O` [4-56], the “Pre-emerge Herbicidal Activity AMARE” value [1, 23] was 100, the “Pre-emerge Herbicidal Activity AMARE” value [1, 24] was 100 and the “Pre-emerge Herbicidal Activity RICE” value [2, 25] was 50. For the same compound, the “Pre-emerge Herbicidal Activity RICE” value [2, 26] was 90, the “Pre-emerge Herbicidal Activity CORN” value [3, 25] was 35 and the “Pre-emerge Herbicidal Activity CORN” value [3, 26] was 80. The “Pre-emerge Herbicidal Activity DIGSA” value [4, 23] was 50, the “Pre-emerge Herbicidal Activity DIGSA” value [4, 24] was 95 and the “Pre-emerge Herbicidal Activity SETVI” value [5, 23] was 90. The “Pre-emerge Herbicidal Activity SETVI” value [5, 24] was 95, the “Pre-emerge Herbicidal Activity CHEAL” value [6, 23] was 100 and the “Pre-emerge Herbicidal Activity CHEAL” value [6, 24] was 100. The “Pre-emerge Herbicidal Activity IPOHE” value [7, 23] was 40, the “Pre-emerge Herbicidal Activity IPOHE” value [7, 24] was 100 and the “Pre-emerge Herbicidal Activity CASOB” value [8, 23] was 10. For the same compound, the “Pre-emerge Herbicidal Activity CASOB” value [8, 24] was 100, the “Pre-emerge Herbicidal Activity ABUTH” value [9, 23] was 100 and the “Pre-emerge Herbicidal Activity ABUTH” value [9, 24] was 100. For the same compound, the “Pre-emerge Herbicidal Activity ECHCG” value [10, 23] was 50, the “Pre-emerge Herbicidal Activity ECHCG” value [10, 24] was 80 and the “Pre-emerge Herbicidal Activity SORHA” value [11, 23] was 50. The “Pre-emerge Herbicidal Activity SORHA” value [11, 24] was 90, the “phytotoxicity rating RICE (crop damage)” value ([12]; 63 g ai/ha) was 65 and the “phytotoxicity rating RICE (crop damage)” value ([12]; 250 g ai/ha) was 85. For the same compound, the “phytotoxicity rating CORN (crop damage)” value ([13]; 63 g ai/ha) was 80, the “phytotoxicity rating CORN (crop damage)” value ([13]; 250 g ai/ha) was 100 and the “phytotoxicity rating DIGSA” value ([14]; 63 g ai/ha) was 20. The “phytotoxicity rating DIGSA” value ([14]; 250 g ai/ha) was 70, the “phytotoxicity rating SETVI” value ([15]; 63 g ai/ha) was 90 and the “phytotoxicity rating SETVI” value ([15]; 250 g ai/ha) was 100. The “phytotoxicity rating CHEAL” value ([16]; 63 g ai/ha) was 100, the “phytotoxicity rating CHEAL” value ([16]; 250 g ai/ha) was 100 and the “phytotoxicity rating IPOHE” value ([17]; 63 g ai/ha) was 100. For the same compound, the “phytotoxicity rating IPOHE” value ([17]; 250 g ai/ha) was 100, the “phytotoxicity rating CASOB” value ([18]; 63 g ai/ha) was 100 and the “phytotoxicity rating CASOB” value ([18]; 250 g ai/ha) was 100. For the same compound, the “phytotoxicity rating ABUTH” value ([19]; 63 g ai/ha) was 100, the “phytotoxicity rating ABUTH” value ([19]; 250 g ai/ha) was 100 and the “phytotoxicity rating ECHCG” value ([20]; 63 g ai/ha) was 50. The “phytotoxicity rating ECHCG” value ([20]; 250 g ai/ha) was 90, the “phytotoxicity rating AMARE” value [21, 27] was 100 and the “phytotoxicity rating AMARE” value [21, 28] was 100. For the same compound, the “phytotoxicity rating SORHA” value ([22]; 63 g ai/ha) was 40 and the “phytotoxicity rating SORHA” value ([22]; 250 g ai/ha) was 90.
In the case of `COc1c(Cl)cc(F)c(-n2c(=O)cc(C(F)(F)F)n(C)c2=O)c1NC(=O)OCc1ccc(F)cc1` [4-7], the “Pre-emerge Herbicidal Activity AMARE” value [1, 29] is reported as 100, the “Pre-emerge Herbicidal Activity AMARE” value [1, 30] is reported as 100 and the “Pre-emerge Herbicidal Activity RICE” value [2, 31] is reported as 70. The “Pre-emerge Herbicidal Activity RICE” value [2, 32] was 100, the “Pre-emerge Herbicidal Activity CORN” value [3, 31] was 60 and the “Pre-emerge Herbicidal Activity CORN” value [3, 32] was 95. The “Pre-emerge Herbicidal Activity DIGSA” value [4, 29] was 100, the “Pre-emerge Herbicidal Activity DIGSA” value [4, 30] was 100 and the “Pre-emerge Herbicidal Activity SETVI” value [5, 29] was 100. The “Pre-emerge Herbicidal Activity SETVI” value [5, 30] was 100, the “Pre-emerge Herbicidal Activity CHEAL” value [6, 29] was 100 and the “Pre-emerge Herbicidal Activity CHEAL” value [6, 30] was 100. The “Pre-emerge Herbicidal Activity IPOHE” value [7, 29] was 80, the “Pre-emerge Herbicidal Activity IPOHE” value [7, 30] was 100 and the “Pre-emerge Herbicidal Activity CASOB” value [8, 29] was 70. The “Pre-emerge Herbicidal Activity CASOB” value [8, 30] was 100, the “Pre-emerge Herbicidal Activity ABUTH” value [9, 29] was 100 and the “Pre-emerge Herbicidal Activity ABUTH” value [9, 30] was 100. The “Pre-emerge Herbicidal Activity ECHCG” value [10, 29] was 70, the “Pre-emerge Herbicidal Activity ECHCG” value [10, 30] was 90 and the “Pre-emerge Herbicidal Activity SORHA” value [11, 29] was 80. For the same compound, the “Pre-emerge Herbicidal Activity SORHA” value [11, 30] was 95, the “phytotoxicity rating RICE (crop damage)” value ([12]; 63 g ai/ha) was 65 and the “phytotoxicity rating RICE (crop damage)” value ([12]; 250 g ai/ha) was 90. For the same compound, the “phytotoxicity rating CORN (crop damage)” value ([13]; 63 g ai/ha) was 90, the “phytotoxicity rating CORN (crop damage)” value ([13]; 250 g ai/ha) was 100 and the “phytotoxicity rating DIGSA” value ([14]; 63 g ai/ha) was 40. For the same compound, the “phytotoxicity rating DIGSA” value ([14]; 250 g ai/ha) was 90, the “phytotoxicity rating SETVI” value ([15]; 63 g ai/ha) was 70 and the “phytotoxicity rating SETVI” value ([15]; 250 g ai/ha) was 100. The “phytotoxicity rating CHEAL” value ([16]; 63 g ai/ha) was 100, the “phytotoxicity rating CHEAL” value ([16]; 250 g ai/ha) was 100 and the “phytotoxicity rating IPOHE” value ([17]; 63 g ai/ha) was 100. The “phytotoxicity rating IPOHE” value ([17]; 250 g ai/ha) was 100, the “phytotoxicity rating CASOB” value ([18]; 63 g ai/ha) was 100 and the “phytotoxicity rating CASOB” value ([18]; 250 g ai/ha) was 100. For the same compound, the “phytotoxicity rating ABUTH” value ([19]; 63 g ai/ha) was 100, the “phytotoxicity rating ABUTH” value ([19]; 250 g ai/ha) was 100 and the “phytotoxicity rating ECHCG” value ([20]; 63 g ai/ha) was 50. For the same compound, the “phytotoxicity rating ECHCG” value ([20]; 250 g ai/ha) was 100, the “phytotoxicity rating AMARE” value [21, 27] was 100 and the “phytotoxicity rating AMARE” value [21, 28] was 100. The “phytotoxicity rating SORHA” value ([22]; 63 g ai/ha) was 90 and the “phytotoxicity rating SORHA” value ([22]; 250 g ai/ha) was 90.
